Assay results reported in patent publication US6737383B1, “Herbicidal oxadiazolidines” (priority 1999, dated 2004).

How the values were obtained:
bedstraw = experiment: Test B pre/postemergence bedstraw; assay type: in vivo, Galium aparine; details: for Bedstraw plant response rating: Postemergence
Method in brief: (§1)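 Herbicidal effect was estimated by eye on a ten-point control scale after plants spent twelve to sixteen days in a greenhouse following soil or foliar treatment. Foliar sprays targeted plants at one to four leaves; all doses were formulated in a non-phytotoxic solvent with surfactant.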

cocklebur = experiment: Test B pre/postemergence cocklebur; assay type: in vivo, Xanthium strumarium
Method in brief: as §1

corn = experiment: Test B pre/postemergence corn; assay type: in vivo, Zea mays
Method in brief: as §1

crabgrass = experiment: Test B pre/postemergence crabgrass; assay type: in vivo, Digitaria sanguinalis
Method in brief: as §1

giant foxtail = experiment: Test B pre/postemergence giant foxtail; assay type: in vivo, Setaria faberii
Method in brief: as §1

morningglory = experiment: Test B pre/postemergence morningglory; assay type: in vivo, Ipomoea hederacea
Method in brief: as §1

pigweed = experiment: Test B pre/postemergence pigweed; assay type: in vivo, Amaranthus retroflexus
Method in brief: as §1

rape = experiment: Test B pre/postemergence rape; assay type: in vivo, Brassica napus
Method in brief: as §1

soybean = experiment: Test B pre/postemergence soybean; assay type: in vivo, Glycine max
Method in brief: as §1

velvetleaf = experiment: Test B pre/postemergence velvetleaf; assay type: in vivo, Abutilon theophrasti
Method in brief: as §1

wheat = experiment: Test B pre/postemergence wheat; assay type: in vivo, Triticum aestivum
Method in brief: as §1

wild oat = experiment: Test B pre/postemergence wild oat; assay type: in vivo, Avena fatua
Method in brief: as §1

purple nutsedge = experiment: Test B pre/postemergence purple nutsedge; assay type: in vivo, Cyperus rotundus
Method in brief: as §1

rice = experiment: Test B flood test rice; assay type: in vivo, Oryza sativa
Method in brief: (§2)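 Plants were grown to the 2-leaf stage before treatment with test chemical, then held in a greenhouse for twelve to sixteen days. Injury was visually rated against untreated controls on a 0–10 scale, where 0 is no effect and 10 is complete control.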

smallflower flatsedge = experiment: Test B flood test smallflower flatsedge; assay type: in vivo, Cyperus difformis
Method in brief: as §2

duck salad = experiment: Test B flood test duck salad; assay type: in vivo, Heteranthera limosa
Method in brief: as §2

[1] = Preemergence, Rate 62 g/ha, scale of 0 to 10 where 0 is no effect and 10 is complete control
[2] = Preemergence, Rate 250 g/ha, scale of 0 to 10 where 0 is no effect and 10 is complete control
[3] = Preemergence, Rate 500 g/ha, scale of 0 to 10 where 0 is no effect and 10 is complete control
[4] = Rate 62 g/ha, Postemergence, scale 0 to 10 (0 no effect, 10 complete control)
[5] = Rate 125 g/ha, Postemergence, scale of 0 to 10 where 0 is no effect and 10 is complete control
[6] = Rate 250 g/ha, Postemergence, scale of 0 to 10 where 0 is no effect and 10 is complete control
[7] = Rate 500 g/ha, Postemergence, scale 0 to 10, 0 no effect, 10 complete control
[8] = Rate 62 g/ha, headed Pre-emergence (flood test species), scale 0 to 10 (0 no effect, 10 complete control)
[9] = Rate 125 g/ha, Pre-emergence, flood test species, scale 0 to 10 where 0 is no effect and 10 is complete control
[10] = Rate 250 g/ha, Pre-emergence, flood-test species, scale 0 to 10, 0 is no effect, 10 is complete control
[11] = Rate 500 g/ha, Pre-emergence, flood test species, scale 0 to 10 (0 no effect, 10 complete control)

With `CCN(C(=O)n1oc(=O)n(C2CC2)c1=O)C1CCCCC1` [Compound 298] the “Bedstraw plant response rating (0 to 10 scale)” value (bedstraw; Preemergence, Rate 125 g/ha) was 0, the “Bedstraw plant response rating” value (bedstraw; Rate 62 g/ha, scale 0 to 10 (0 no effect, 10 complete control)) was 0 and the “Bedstraw plant response rating” value (bedstraw; Rate 125 g/ha, scale of 0 to 10 where 0 is no effect and 10 is complete control) was 0. The “Cocklebur plant response rating” value (cocklebur; [1]) was 0, the “Cocklebur plant response rating (0 to 10 scale)” value (cocklebur; Preemergence, Rate 125 g/ha) was 0 and the “Cocklebur plant response rating” value (cocklebur; [2]) was 0. For the same molecule, the “Plant response rating, Cocklebur” value (cocklebur; [3]) was 0, the “Cocklebur plant response rating” value (cocklebur; [4]) was 0 and the “Cocklebur plant response rating” value (cocklebur; [5]) was 0. For the same molecule, the “Plant response rating, Cocklebur” value (cocklebur; [6]) was 0, the “Cocklebur plant response rating” value (cocklebur; [7]) was 0 and the “Corn plant response rating” value (corn; [1]) was 0. The “Corn plant response rating (0 to 10 scale)” value (corn; Preemergence, Rate 125 g/ha) was 0, the “Corn plant response rating” value (corn; [2]) was 0 and the “Plant response rating, Corn” value (corn; [3]) was 0. For the same molecule, the “Corn plant response rating” value (corn; [4]) was 0, the “Corn plant response rating” value (corn; [5]) was 0 and the “Plant response rating, Corn” value (corn; [6]) was 0. For the same molecule, the “Corn plant response rating” value (corn; [7]) was 0, the “Crabgrass plant response rating” value (crabgrass; [1]) was 0 and the “Crabgrass plant response rating (0 to 10 scale)” value (crabgrass; Preemergence, Rate 125 g/ha) was 0. The “Crabgrass plant response rating” value (crabgrass; [2]) was 0, the “Plant response rating, Crabgrass” value (crabgrass; [3]) was 0 and the “Crabgrass plant response rating” value (crabgrass; [4]) was 0. The “Crabgrass plant response rating” value (crabgrass; [5]) was 0, the “Plant response rating, Crabgrass” value (crabgrass; [6]) was 0 and the “Giant foxtail plant response rating” value (giant foxtail; [1]) was 0. The “Giant foxtail plant response rating (0 to 10 scale)” value (giant foxtail; Preemergence, Rate 125 g/ha) was 0, the “Giant foxtail plant response rating” value (giant foxtail; [4]) was 0 and the “Giant foxtail plant response rating” value (giant foxtail; [5]) was 0. The “Plant response rating, Giant foxtail” value (giant foxtail; [6]) was 0, the “Morningglory plant response rating” value (morningglory; [1]) was 0 and the “Morningglory plant response rating (0 to 10 scale)” value (morningglory; Preemergence, Rate 125 g/ha) was 0. For the same molecule, the “Morningglory plant response rating” value (morningglory; [2]) was 0, the “Plant response rating, Morningglory” value (morningglory; [3]) was 0 and the “Morningglory plant response rating” value (morningglory; [4]) was 0. For the same molecule, the “Morningglory plant response rating” value (morningglory; [5]) was 3, the “Plant response rating, Morningglory” value (morningglory; [6]) was 3 and the “Redroot pigweed plant response rating” value (pigweed; [1]) was 0. For the same molecule, the “Redroot pigweed plant response rating (0 to 10 scale)” value (pigweed; Preemergence, Rate 125 g/ha) was 0, the “Redroot pigweed plant response rating” value (pigweed; [2]) was 0 and the “Plant response rating, Redroot pigweed” value (pigweed; [3]) was 0. For the same molecule, the “Redroot pigweed plant response rating” value (pigweed; [4]) was 0, the “Redroot pigweed plant response rating” value (pigweed; [5]) was 0 and the “Plant response rating, Redroot pigweed” value (pigweed; [6]) was 0. The “Rape plant response rating” value (rape; [1]) was 0, the “Rape plant response rating (0 to 10 scale)” value (rape; Preemergence, Rate 125 g/ha) was 0 and the “Rape plant response rating” value (rape; [2]) was 0. For the same molecule, the “Plant response rating, Rape” value (rape; [3]) was 0, the “Rape plant response rating” value (rape; [4]) was 0 and the “Rape plant response rating” value (rape; [5]) was 0. The “Plant response rating, Rape” value (rape; [6]) was 0, the “Soybean plant response rating” value (soybean; [1]) was 0 and the “Soybean plant response rating (0 to 10 scale)” value (soybean; Preemergence, Rate 125 g/ha) was 0. The “Soybean plant response rating” value (soybean; [2]) was 0, the “Plant response rating, Soybean” value (soybean; [3]) was 0 and the “Soybean plant response rating” value (soybean; [4]) was 0. For the same molecule, the “Soybean plant response rating” value (soybean; [5]) was 3, the “Plant response rating, Soybean” value (soybean; [6]) was 3 and the “Velvetleaf plant response rating” value (velvetleaf; [1]) was 0. The “Velvetleaf plant response rating (0 to 10 scale)” value (velvetleaf; Preemergence, Rate 125 g/ha) was 0, the “Velvetleaf plant response rating” value (velvetleaf; [2]) was 0 and the “Plant response rating, Velvetleaf” value (velvetleaf; [3]) was 0. For the same molecule, the “Velvetleaf plant response rating” value (velvetleaf; [4]) was 0, the “Velvetleaf plant response rating” value (velvetleaf; [5]) was 0 and the “Plant response rating, Velvetleaf” value (velvetleaf; [6]) was 0. The “Wheat plant response rating” value (wheat; [1]) was 0, the “Wheat plant response rating (0 to 10 scale)” value (wheat; Preemergence, Rate 125 g/ha) was 0 and the “Wheat plant response rating” value (wheat; [2]) was 0. The “Plant response rating, Wheat” value (wheat; [3]) was 0, the “Wheat plant response rating” value (wheat; [4]) was 0 and the “Wheat plant response rating” value (wheat; [5]) was 0. For the same molecule, the “Plant response rating, Wheat” value (wheat; [6]) was 0, the “Wild oats plant response rating” value (wild oat; [1]) was 0 and the “Wild oats plant response rating (0 to 10 scale)” value (wild oat; Preemergence, Rate 125 g/ha) was 0. The “Wild oats plant response rating” value (wild oat; [2]) was 0, the “Plant response rating, Wild oats” value (wild oat; [3]) was 0 and the “Wild oats plant response rating” value (wild oat; [4]) was 0. The “Wild oats plant response rating” value (wild oat; [5]) was 0, the “Plant response rating, Wild oats” value (wild oat; [6]) was 0 and the “Nutsedge plant response rating” value (purple nutsedge; [1]) was 0. The “Nutsedge plant response rating (0 to 10 scale)” value (purple nutsedge; Preemergence, Rate 125 g/ha) was 0, the “Nutsedge plant response rating” value (purple nutsedge; [2]) was 0 and the “Plant response rating, Nutsedge” value (purple nutsedge; [3]) was 0. The “Nutsedge plant response rating” value (purple nutsedge; [4]) was 0, the “Nutsedge plant response rating” value (purple nutsedge; [5]) was 0 and the “Plant response rating, Nutsedge” value (purple nutsedge; [6]) was 0. The “Rice plant response rating” value (rice; [8]) was 0, the “Rice plant response rating” value (rice; [9]) was 0 and the “Rice plant response rating” value (rice; [10]) was 0. The “Rice plant response rating” value (rice; [11]) was 0, the “S. Flatsedge plant response rating” value (smallflower flatsedge; [8]) was 0 and the “S. Flatsedge plant response rating” value (smallflower flatsedge; [9]) was 0. The “S. Flatsedge plant response rating” value (smallflower flatsedge; [10]) was 0, the “S. Flatsedge plant response rating” value (smallflower flatsedge; [11]) was 0 and the “Ducksalad plant response rating” value (duck salad; [8]) was 0. The “Ducksalad plant response rating” value (duck salad; [9]) was 0, the “Ducksalad plant response rating” value (duck salad; [10]) was 0 and the “Ducksalad plant response rating” value (duck salad; [11]) was 0.
